Legend:
P. aeruginosa DR4877/07 [1] = assay: microbe, parasite or virus in culture; conditions: for MIC: Pseudomonas aeruginosa, DR4877/07, 24 h, read-out: MIC of antibiotics
Description: MIC of each peptide was determined using the microdilution method in a 96 well microtitre plates (SPL Life Sciences Co., Ltd, Korea). Two-fold serial dilutions of each peptide in Mueller-Hinton Broth (MHB) was prepared from a 1 mg/ml stock solution of the peptide in the same broth, to obtain a final concentration in the range of 0.0976–50 μg/ml in each well. Bacterial suspensions (P. aeruginosa ATCC 27853, P. aeruginosa 4877, P. aeruginosa 23155, K. pneumoniae ATCC 10031 and K. pneumoniae 4299) were prepared by suspending the overnight cultured bacteria in saline and adjusting the inoculum to ~10^8 colony forming units (CFU) per ml. A further 150-fold dilution was then prepared in MHB to achieve a final cell density of 10^5–10^6 CFU/ml. In each well, 100 μl of inoculum was mixed with the equal volume of peptides at their 2× concentration. Positive and negative controls contained 200 μl of inoculum (without any peptide) and broth alone (no peptide/inoculum) respectively. Another negative control in which MHB containing 200 μl of peptide alone in its highest concentration tested (50 μg/ml) was also included to ensure that the optical density measured in the test wells was not due to turbidity of the peptides in solution. The 96 well polystyrene plates were then incubated at 37 °C for 24 h and the optical density at 600 nm (OD600) was measured every 30 min continuously using a TECAN microplate reader (TECAN Infinite 200, Austria).

P. aeruginosa DR4877/07 [2] = format: cell-based; conditions: for FICI of B2088-antibiotic combination: lowest FICI reported, two independent duplicates
Description: The synergism between peptides with conventional antibiotics was evaluated using checkerboard assays. For a comparison polymyxin B (PMB) was also tested against each antibiotic. From their stock solutions, two-fold dilutions of each antibiotic and peptide to 1× MIC were prepared in MHB. 50 μl of each peptide concentration was added into the wells of a 96-well polystyrene plates (SPL Life Sciences Co. Ltd, Korea) in a horizontal orientation and the same volume of each antibiotic concentration were then added in a vertical orientation. Bacterial suspensions were prepared in MHB to yield final cell density of ~10^6 CFU/ml and 100 μl of bacterial suspension was mixed with each peptide-antibiotic combinations. This procedure was repeated for wells containing 200 μl of peptide alone and 200 μl of antibiotic alone in various concentrations. The positive and negative controls contained 200 μl of inoculum and MHB alone respectively. The plates were incubated at 37 °C for 24 hours and the optical density at 600 nm (OD600) was monitored as before. Fractional inhibitory concentration index (FICI) for all antibiotic- peptide combinations was calculated through the summation of (MIC of peptide in the combination/ MIC of peptide alone) and (MIC of antibiotics in combination/MIC of antibiotic alone). The experiments were performed in two independent duplicates and the combinations that gave the lowest FICI values was reported.

[3] = system: LPS (E. coli serotype 055:B5); assay: BODIPY TR cadaverine (BC) displacement assay with LPS; format: binding
Text: To investigate the interaction of B2088 with LPS, we performed the BODIPY TR cadaverine (BC) displacement assay reported by Wood et al.[22]. The probe binds to the lipid A part of the LPS with moderate affinity and can be displaced by putative LPS-binding molecules. The method was used to probe the affinity of polycationic molecules and LPS binding proteins. First, we determined the affinity of polymyxin B (PMB), a lipopeptide cyclic antibiotic which has a high affinity for LPS. […] Figure 1a,b show the concentration-dependent displacement of LPS/lipid A-bound BC upon addition of B2088. […] To confirm the importance of branching, we determined the BC50 for a linear retrodimer having the amino acid sequence, […] (Fig. 1d). The determined value was 2-fold higher (3.9 ± 0.1 μM) than that of B2088, confirming a weaker affinity of the linear peptide.
The BC displacement assay was used to determine the ability of each peptide to bind to LPS. The florescent probe, BODIPY TR cadaverine (BC) was purchased from Molecular Probes/ Invitrogen (USA). A stock solution containing 1 mg/ml of LPS (E. coli serotype 055:B5) was prepared in dimethyl sulfoxide (DMSO) and another stock solution containing 1 mg/ml of BC dye was prepared in 5 mM HEPES buffer (pH 7.4). The optimum saturation concentration of BC:LPS ratio was standardized following the protocol provided by Wood et al. (22). From the BC stock, 240 μl was mixed with 500 μl from the LPS stock solution in 5 mM HEPES buffer (pH 7.4) to prepare 20 ml of BC:LPS mixture. Two-fold serial dilutions of each peptide in 5 mM HEPES buffer (pH 7.4) was prepared from their 1 mg/ml stock solutions to obtain a final range of 0.02–25.6 μM. The BC:LPS mixture was added to 100 μl of each peptide congener in a 1:1 ratio in each well of a 96-well black Costar™ polystyrene microtitre plate (Corning Incorporated, NY, USA). The maximum fluorescence intensity (Fmax) was determined using a mixture containing 100 μl PMB (50 μg/ml) and 100 μl BC:LPS solution, as PMB is considered the ‘gold standard’ for LPS-sequestering agents. The minimum fluorescence intensity (F0) was measured using 200 μl of BC:LPS mixture to determine the background noise for this experiment. Fluorescence measurements for each peptide (F) were determined using a microplate reader (Model: TECAN Infinite 200, Austria) with excitation and emission wavelengths set at 580 nm and 620 nm respectively. The percentage of BC displacement was then calculated using the formula: […]
The experiments were performed in duplicates and the effective concentration required for 50% displacement of BC dye (ED50) from LPS with respect to PMB was determined by curve fitting using Graphpad Prism (CA, USA). A higher ED50 value for the peptide indicates a lower affinity for LPS.

[4] = MIC of B2088 6.25 μg/ml, MHB, ~10^6 CFU/ml, 37 °C, 24 h

| Molecule | MIC (P. aeruginosa DR4877/07 [1]) [µg/mL] | MIC of antibiotics in the presence of ½× sub-MIC of B2088 (P. aeruginosa DR4877/07 [2]; [4]) [µg/mL] | FICI of B2088-antibiotic combination (P. aeruginosa DR4877/07 [2]) | MIC of antibiotics in the presence of ¼× sub-MIC of B2088 (P. aeruginosa DR4877/07 [2]; [4]) [µg/mL] | further results |
| --- | --- | --- | --- | --- | --- |
| O=C(O)c1cn(C2CC2)c2cc(N3CCNCC3)c(F)cc2c1=O [Ciprofloxacin] | 12.5 |  |  |  |  |
| CC[C@H]1OC(=O)[C@H](C)[C@@H](O[C@H]2C[C@@](C)(OC)[C@@H](O)[C@H](C)O2)[C@H](C)[C@@H](O[C@@H]2O[C@H](C)C[C@H](N(C)C)[C@H]2O)[C@](C)(O)C[C@@H](C)C(=O)[C@H](C)[C@@H](O)[C@]1(C)O [Erythromycin, reference compound] | 100 | 50 | 1.0 |  |  |
| C[C@@H](O)[C@H]1C(=O)N2C(C(=O)O)=C(SCCN=CN)C[C@H]12 [Imipenem, reference compound] | 0.78 | 0.0975 |  | 0.195 |  |
| NC[C@H]1O[C@H](O[C@H]2[C@H](O)[C@@H](O[C@H]3O[C@H](CO)[C@@H](O)[C@H](N)[C@H]3O)[C@H](N)C[C@@H]2N)[C@H](O)[C@@H](O)[C@@H]1O [Kanamycin, reference compound] |  | 800 | 0.75 | 1600 | MIC of antibiotics (P. aeruginosa DR4877/07 [1]; antibiotic alone, MHB, 37 °C, 24 h, OD600): 3200 µg/mL; Fold decrease in the MIC of antibiotics at sub-lethal/sub-inhibitory concentrations of B2088 (P. aeruginosa DR4877/07 [2]; multidrug resistant P. aeruginosa 4877): 4 fold |
| C[C@H]1COc2c(N3CCN(C)CC3)c(F)cc3c(=O)c(C(=O)O)cn1c23 [Levofloxacin, reference compound] | 50 | 12.5 | 0.75 |  |  |
| CCn1cc(C(=O)O)c(=O)c2ccc(C)nc21 [Nalidixic acid, reference compound] | 3200 | 400 | 0.63 |  | FICI of polymyxin B-antibiotic combination (P. aeruginosa DR4877/07 [2]): 1.0 |
| [H]/N=C(/N)N[C@H]1[C@H](O)[C@@H](O)[C@H](O[C@@H]2O[C@@H](C)[C@](O)(C=O)[C@H]2O[C@@H]2O[C@@H](CO)[C@H](O)[C@@H](O)[C@@H]2NC)[C@@H](N/C(N)=N\[H])[C@@H]1O [Streptomycin, reference compound] | 200 | 50 | 0.75 | 100 | MIC of antibiotics in the presence of ⅛× sub-MIC of B2088 (P. aeruginosa DR4877/07 [2]; [4]): 100 µg/mL |
| RGRKVVRRKKRRVVKRGR [linear retrodimer] |  |  |  |  | ED50 (50% displacement of BC dye from LPS; also called BC50) ([3]; 5 mM HEPES pH 7.4, fluorescence ex 580/em 620 nm, with respect to PMB, duplicates): 3.9 ± 0.1 µM; BC50 fold higher than that of B2088 ([3]; LPS-bound BC): 2 fold; FICI with chloramphenicol (P. aeruginosa DR4877/07 [2]; additive effect): 1; FICI with gatifloxacin (P. aeruginosa DR4877/07 [2]; additive effect): 1; FICI with tobramycin (P. aeruginosa DR4877/07 [2]; additive effect): 1 |

Reference: publication PMC4865820, “Branched Peptide, B2088, Disrupts the Supramolecular Organization of Lipopolysaccharides and Sensitizes the Gram-negative Bacteria” (Scientific Reports, 2016)
